Assay results reported in BigSolDB 2.1.

CC(=O)Nc1ccc(OC(=O)c2ccccc2OC(C)=O)cc1
solubility (mole fraction)
Details | 278.15 K | 283.15 K | 288.15 K | 293.15 K | 298.15 K | 303.15 K | 308.15 K | 313.15 K | 318.15 K
in DMF | 0.0175 | 0.0187 | 0.0201 | 0.0214 | 0.0229 | 0.0244 | 0.0258 | 0.0274 | 0.029
in NMP | 0.0222 | 0.0255 | 0.0289 | 0.0326 | 0.0368 | 0.041 | 0.0461 | 0.0515 | 0.0571
in ethanol | 0.000261 | 0.00035 | 0.000454 | 0.000588 | 0.000755 | 0.000947 | 0.0012 | 0.00151 | 0.00191
in isopropanol | 0.000141 | 0.000191 | 0.000257 | 0.000346 | 0.000456 | 0.000604 | 0.000781 | 0.00103 | 0.00131
in water | 5.59e-07 | 8.56e-07 | 1.19e-06 | 1.74e-06 | 2.45e-06 | 3.49e-06 | 4.82e-06 | 6.74e-06 | 8.99e-06
